Broadly, the melting point is the temperature, or range, at which the solid turns liquid. In general, viability refers to a read-out of living cells in per cent, often relative to untreated cells.

Series [1] is described as follows: MTT cell viability assay in RAW 264.7 cells. The format is cell-based, murine. The settings on record: mouse; for CC50 at 24 hr: read-out: Cell viability: CC50 (cytotoxic concentration that produces 50% cell survival); for viability at 24 hr, 10 µM: 10 μM compound, read-out: Cell viability: Survival rate at 10 μM (%). As for the experimental part:
(§1) Cell viability was measured by MTT assay in RAW 264.7 cells upon treatment with 10 μM compounds for 24 hr. CC50 (the cytotoxic concentration that produces 50% cell survival) were identified in this example.

Series [2] concerns RAW 264.7 cells. Description: TRAP staining and activity assay of RANKL-induced osteoclastogenesis. The format is cell-based, murine. Conditions: 10 μM compound; for Inhibitory activity on osteoclastogenesis (in words) / Inhibition of osteoclast differentiation, TRAP staining (FIG. 1 C, D, E): RANKL; for Osteoclastogenesis: TRAP+ MNCS at 10 μM (%): 100 ng/mL RANKL, 5 days, relative to RANKL without drug. As to the method: The murine RAW 264.7 cell was an osteoclast precursor cell. RAW 264.7 cells were cultured in DMEM (Gibco BRL), 10% FBS, Penicillin (100 U/L), Streptomycin (100 U/L), 5% CO2, 37° C. To induce the murine RAW 264.7 cells differentiation, the cells were cultured in 96-well culture dish 10^4 cell per dish with α-MEM, 10% FBS, 2 mM L-glutamate, Penicillin (100 U/L), Streptomycin (100 U/L), with or without 100 ng/mL RANKL for 5 days, and added or not added tested drug, replaced the fresh medium at 3 day. The cells were TRAP^+ stained and analyzed the activity, then washed the cells by PBS and fixed by 3.7% formaldehyde for 30 minutes, then washed by PBS. The cells were reacted in Leukocyte Acid Phosphatase Assay kit (Sigma) at 37° C. for 1 hr, and washed by distilled water for three times and counted the multinucleated cells numbers by microscopy.
After treatment with RANKL and 10 μM compounds in RAW 264.7, the osteoclasts were counted percentage of the TRAP^+ cells (TRAP^+ MNCS %, the denominator was the number of cells which was treated with RANKL but without drug, and the numerator was the number of cells which was treated with RANKL and drug).

Series [3] concerns RAW 264.7 cells. The experiment in a line: MTT cell viability assay in RAW 264.7 cells. The format is cell-based, murine. The settings on record: 24 hr; for Cell viability: Survival rate at 10 μM (%): 10 μM compound; for CC50: read-out: Cell viability: CC50 (cytotoxic concentration that produces 50% cell survival). As to the method: as §1
A general note: Formazan colour is commonly taken as a measure of viable cells.

Series [4] deals with RAW 264.7 cells. Description: Pit formation assay (bone resorption). The format is cell-based, murine. The settings on record: RANKL, 10 μM compound. As for the experimental part:
In pit formation assay, RAW 264.7 cells were cultured in DMEM (Gibco BRL) 10% FBS, Penicillin (100 U/L), streptomycin (100 U/L), 5% CO2 at 37° C. To induce the murine RAW 264.7 cell differentiation, the cells were cultured in 96-well culture dish 10^4 cell per dish with α-MEM, 10% FBS, 2 mM L-glutamate, Penicillin (100 U/L), Streptomycin (100 U/L), with or without 100 ng/mL RANKL for 5 days in the present or absent tested drug, replaced the fresh medium at 3 day. The 24-well plate were washed by PBS and added in 0.5 mL/well chloride solution, stood at room-temperature for 10 minutes for destroying the cell, then stained with 0.1% Toluidine Blue 0.5 mL/well, and washed by distilled water for three times and photographed under microscopy.

Some results are limits rather than exact numbers.

`O=C(O)c1ccccc1O` [Salicylic acid, reference compound]: the CC50 at 24 hr in series [1] is above 40 µM. Also, the “Inhibitory activity on osteoclastogenesis (in words)” value in series [2] is “did not perform significant inhibitory activity”.
`O=C(Nc1ccc(F)cc1F)c1ccccc1OCc1ccc(F)cc1F` [compound 3c, 2-((2,4-difluorobenzyl)oxy)-N-(2,4-difluorophenyl)benzamide]: the melting point was 135 to 136 °C. In addition, the CC50 at 24 hr in series [1] is above 40 µM. Besides, the “Cell viability: Survival rate at 10 μM (%)” value (“Cell viability … (%)” below) in series [3] worked out at 101.1 ± 3.2%. Besides, the “Osteoclastogenesis: TRAP+ MNCS at 10 μM (%)” value (shortened to “Osteoclastogenesis … (%)”) in series [2] was 97.6 ± 6.0%.
The like results for `COc1ccccc1C(=O)Nc1ccc(F)cc1F` [compound 3b, N-(2,4-difluorophenyl)-2-methoxybenzamide] were, in that order, 86 to 87 °C, above 40 µM, 108.5 ± 4.0% and 89.1 ± 5.1%.
The like results for `COc1ccc(C(=O)Nc2ccc(Cl)cc2F)c(OCc2ccc(F)cc2F)c1` [compound 2c, N-(4-chloro-2-fluorophenyl)-2-((2,4-difluorobenzyl)oxy)-4-methoxybenzamide] were, in that order, 134 to 135 °C, above 40 µM, 107.3 ± 4.4% and 68.7 ± 4.6%.
In turn, `O=C(Nc1ccc(Cl)cc1F)c1ccccc1O` [compound 1a, N-(4-chloro-2-fluorophenyl)-2-hydroxybenzamide] had a melting point of 184 to 185 °C. In series [1], the viability at 24 hr, 10 µM was 93 ± 3.1% and the CC50 at 24 hr was 21.3 ± 3.4 µM. In addition, the “Osteoclastogenesis … (%)” value in series [2] was 49.4±5.4%.
The like results for `COc1ccc(C(=O)Nc2ccc(F)cc2F)c(O)c1` [compound 4a, N-(2,4-difluorophenyl)-2-hydroxy-4-methoxybenzamide] were, in that order, 180 to 181 °C, 105 ± 4.7%, above 40 µM and 41.3±8.6%.
`O=c1oc2ccccc2c(=O)n1-c1ccc(F)cc1F` [compound 3d, 3-(2,4-difluorophenyl)-2H-benzo[e][1,3]oxazine-2,4(3H)-dione] gave a melting point of 182 to 183 °C. Further, in series [1], the viability at 24 hr, 10 µM was determined as 105 ± 6.3% and the CC50 at 24 hr was above 40 µM. The “Osteoclastogenesis … (%)” value in series [2] is recorded as 69.8 ± 7.7%.
As to `COc1ccc2c(=O)n(-c3ccc(Cl)cc3F)c(=O)oc2c1` [compound 2d, 3-(4-chloro-2-fluorophenyl)-7-methoxy-2H-benzo[e][1,3]oxazine-2,4(3H)-dione], the melting point was in the range of 203 to 204 °C. The CC50 at 24 hr in series [1] is above 40 µM. Also, the “Cell viability … (%)” value in series [3] amounted to 100.5 ± 2.4%. Moreover, in series [2], the “Osteoclastogenesis … (%)” value stood at 36.0±1.8% and the “Inhibition of osteoclast differentiation, TRAP staining (FIG. 1 C, D, E)” value (“Inhibition of osteoclast differentiation” below) is given as “significant inhibition of differentiation”.
`COc1ccc(C(=O)Nc2ccc(F)cc2F)c(OC)c1` [compound 4b, N-(2,4-difluorophenyl)-2,4-dimethoxybenzamide] displayed a melting point of 138 to 139 °C. Also, in series [1], the CC50 at 24 hr was above 40 µM. Also, in series [3], the “Cell viability … (%)” value is listed as 102.5 ± 9.3%. In addition, the “Osteoclastogenesis … (%)” value in series [2] was 93.0 ± 7.7%.
On to `COc1ccc2c(=O)n(-c3ccc(F)cc3F)c(=O)oc2c1` [compound 4d, 3-(2,4-difluorophenyl)-7-methoxy-2H-benzo[e][1,3]oxazine-2,4(3H)-dione], for which the melting point is 138 to 139 °C. For the same compound, in series [1], the viability at 24 hr, 10 µM was 102 ± 9.1% and the CC50 at 24 hr is above 40 µM. Further, in series [2], the “Osteoclastogenesis … (%)” value stood at 87.9 ± 9.1%.
Regarding `COc1ccc(C(=O)Nc2ccc(Cl)cc2F)c(O)c1` [compound 2a, N-(4-chloro-2-fluorophenyl)-2-hydroxy-4-methoxybenzamide], the melting point lay within 186 to 187 °C. Moreover, in series [3], the “Cell viability … (%)” value was determined as 103.0 ± 2.8% and the CC50 came out at 32.3 ± 4.9 µM. Also, in series [2], the “Osteoclastogenesis … (%)” value turned out to be 23.8±3.4% and the “Inhibition of osteoclast differentiation” value is “significant inhibition of differentiation”. Further, in series [4], the “Bone resorption, erosion of bone slices (FIG. 2 C, D)” value is listed as “the resorption hole was reduced”.
`COc1ccccc1C(=O)Nc1ccc(Cl)cc1F` [compound 1b, N-(4-chloro-2-fluorophenyl)-2-methoxybenzamide]: the melting point is 111 to 112 °C. Besides, in series [1], the CC50 at 24 hr is above 40 µM. Besides, the “Cell viability … (%)” value in series [3] is on record as 101.8 ± 4.5%. Further, the “Osteoclastogenesis … (%)” value in series [2] came out at 86.0 ± 9.9%.
With `O=c1oc2ccccc2c(=O)n1-c1ccc(Cl)cc1F` [compound 1d, 3-(4-chloro-2-fluorophenyl)-2H-benzo[e][1,3]oxazine-2,4(3H)-dione], the CC50 at 24 hr in series [1] is above 40 µM. Also, the “Cell viability … (%)” value in series [3] is 97.9 ± 2.0%. In series [2], the “Osteoclastogenesis … (%)” value was found to be 3.4±2.1% and the “Inhibition of osteoclast differentiation” value is recorded as “significant inhibition of differentiation”. The “Bone resorption, erosion of bone slices (FIG. 2 C, D)” value in series [4] was “the resorption hole was reduced”.
`COc1ccc(C(=O)Nc2ccc(Cl)cc2F)c(OC)c1` [compound 2b, N-(4-chloro-2-fluorophenyl)-2,4-dimethoxybenzamide] registered a melting point of 155 to 156 °C. Further, in series [3], the “Cell viability … (%)” value is given as 52.9 ± 2.8% and the CC50 came out at 13.6 ± 1.2 µM. In series [2], the “Osteoclastogenesis … (%)” value is recorded as 60.2 ± 3.6%.
`O=C(Nc1ccc(Cl)cc1F)c1ccccc1OCc1ccc(F)cc1F` [compound 1c, N-(4-chloro-2-fluorophenyl)-2-((2,4-difluorobenzyl)oxy)benzamide] gave a melting point of 121 to 122 °C. Moreover, the CC50 at 24 hr in series [1] was above 40 µM. For the same compound, the “Cell viability … (%)” value in series [3] is reported as 107.2 ± 4.5%. Further, the “Osteoclastogenesis … (%)” value in series [2] is 74.6 ± 6.2%.
In turn, `COc1ccc(C(=O)Nc2ccc(F)cc2F)c(OCc2ccc(F)cc2F)c1` [compound 4c, 2-((2,4-difluorobenzyl)oxy)-N-(2,4-difluorophenyl)-4-methoxybenzamide] showed a melting point of 131 to 132 °C. In series [1], the CC50 at 24 hr was above 40 µM. For the same compound, the “Cell viability … (%)” value in series [3] is 106.0 ± 8.8%. Besides, in series [2], the “Osteoclastogenesis … (%)” value stood at 66.2 ± 8.1%.
With `O=C(Nc1ccc(F)cc1F)c1ccccc1O` [compound 3a, N-(2,4-difluorophenyl)-2-hydroxybenzamide], the melting point lay in the range of 186 to 187 °C. Also, in series [1], the viability at 24 hr, 10 µM stood at 104 ± 3.6% and the CC50 at 24 hr is above 40 µM. Further, in series [2], the “Osteoclastogenesis … (%)” value is given as 85.9 ± 6.2%.
In the case of `COc1ccc(C(=O)O)c(O)c1` [2-hydroxy-4-methoxy-benzoic acid, reference compound], the CC50 at 24 hr in series [1] is above 40 µM. Moreover, the “Cell viability … (%)” value in series [3] was determined as 99.4 ± 7.6%. In series [2], the “Osteoclastogenesis … (%)” value is given as 79.6 ± 8.3% and the “Inhibitory activity on osteoclastogenesis (in words)” value is reported as “did not perform significant inhibitory activity”.

The record behind these values is US9018203B2, “Pharmaceutical composition of salicylanilide-derived small molecules and preparation and application thereof” (National Defense Medical Center, priority 2012, dated 2015).
